The record followed here is patent publication US9085576B2 (AMGEN INC., priority 2013, dated 2015).

Usually IC50 stands for the concentration that gives 50% inhibition.

The target in assay [1] is BACE (Homo sapiens (Human), UniProt P56817). Nature of the assay: In vitro BACE cell-based assay (Aβ40 in conditioned medium, sandwich ELISA). On the technique in general: In an ELISA, binding on a coated surface is turned into a signal by an enzyme label.
Assay [2] deals with Cathepsin D (Cat D) (Homo sapiens (Human), UniProt P07339). The assay is described as follows: In vitro enzymatic Cathepsin D (Cat D) FRET assay. The assay is classed as biochemical. The following applies: read-out: CatD IC50.
Assay [3] concerns the target Beta Secretase enzyme (BACE) (Homo sapiens (Human), UniProt P56817). Nature of the assay: In vitro enzymatic BACE FRET assay. The assay is classed as biochemical. The following applies: read-out: BACE1 Enzyme assay IC50.

Sequence of Beta Secretase enzyme (BACE) (P56817 46-501): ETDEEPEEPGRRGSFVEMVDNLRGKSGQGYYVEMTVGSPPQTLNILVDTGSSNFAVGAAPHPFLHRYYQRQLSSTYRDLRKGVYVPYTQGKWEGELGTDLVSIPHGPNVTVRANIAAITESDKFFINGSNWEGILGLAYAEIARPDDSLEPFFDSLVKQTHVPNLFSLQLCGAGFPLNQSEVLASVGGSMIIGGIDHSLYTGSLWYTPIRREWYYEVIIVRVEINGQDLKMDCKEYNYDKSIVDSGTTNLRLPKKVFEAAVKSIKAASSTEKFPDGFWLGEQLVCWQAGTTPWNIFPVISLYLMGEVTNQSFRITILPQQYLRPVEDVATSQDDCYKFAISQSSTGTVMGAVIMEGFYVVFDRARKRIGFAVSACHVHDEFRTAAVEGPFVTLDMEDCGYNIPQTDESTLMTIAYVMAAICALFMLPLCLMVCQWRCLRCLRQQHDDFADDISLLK
Sequence of BACE (P56817 46-501, species assumed): as the sequence (P56817 46-501) above
Sequence of Cathepsin D (Cat D) (P07339 65-412, species assumed): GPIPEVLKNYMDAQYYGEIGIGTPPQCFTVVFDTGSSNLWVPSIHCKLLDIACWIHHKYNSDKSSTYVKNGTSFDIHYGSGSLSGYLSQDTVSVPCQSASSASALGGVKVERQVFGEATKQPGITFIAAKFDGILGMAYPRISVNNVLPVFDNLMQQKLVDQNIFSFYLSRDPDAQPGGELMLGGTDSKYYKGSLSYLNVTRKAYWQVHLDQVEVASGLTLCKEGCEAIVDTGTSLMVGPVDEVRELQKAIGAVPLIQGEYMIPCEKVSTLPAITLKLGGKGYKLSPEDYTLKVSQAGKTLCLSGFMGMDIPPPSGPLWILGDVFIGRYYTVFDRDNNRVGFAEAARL

Consider `CC#CCOc1cnc(C(=O)Nc2cc(F)c(F)c(C3(CF)N=C(N)O[C@H]4C[C@H]43)c2)cn1` (stereo in doubt) [Example 36, N-(3-((1S,5S,6S)-3-amino-5-(fluoromethyl)-2-oxa-4-azabicyclo[4.1.0]hept-3-en-5-yl)-4,5-difluorophenyl)-5-(but-2-yn-1-yloxy)pyrazine-2-carboxamide], for which the IC50 in assay [1] is 0.176 µM; in assay [2] it was 526 µM; in assay [3] it was 0.295 µM.

As to `NC1=NC(CF)(c2cc(NC(=O)c3ccc(Br)cn3)cc(F)c2F)[C@@H]2C[C@@H]2O1` (stereo in doubt) [Example 40, N-(3-((1S,5S,6S)-3-amino-5-(fluoromethyl)-2-oxa-4-azabicyclo[4.1.0]hept-3-en-5-yl)-4,5-difluorophenyl)-5-bromopicolinamide], the IC50 in assay [1] was determined as 1.91 µM; in assay [2] it was 516 µM; in assay [3] it was 6.5 µM.

Consider `NC1=NC(CF)(c2cc(NC(=O)c3nn(C(F)F)cc3Cl)cc(F)c2F)[C@@H]2C[C@@H]2O1` (stereo in doubt) [Example 47, N-(3-((1S,5S,6S)-3-amino-5-(fluoromethyl)-2-oxa-4-azabicyclo[4.1.0]hept-3-en-5-yl)-4,5-difluorophenyl)-4-chloro-1-(difluoromethyl)-1H-pyrazole-3-carboxamide], for which the IC50 in assay [1] was found to be 1.76 µM; in assay [2] it was 968 µM; in assay [3], 21.2 µM.

Consider `Cc1cc(C#N)cnc1C(=O)Nc1cc(F)c(F)c([C@@]2(CF)N=C(N)O[C@@H]3C[C@@H]32)c1` (stereo in doubt) [Example 50], for which the IC50 was above 15.6 µM in assay [1], 1750 µM in assay [2] and 26.6 µM in assay [3].

`Cc1cc(C(F)(F)F)cnc1C(=O)Nc1cc(F)c(F)c([C@@]2(CF)N=C(N)O[C@@H]3C[C@@H]32)c1` (stereo in doubt) [Example 52]: the figures for the IC50 in assay [1], in assay [2] and in assay [3] were above 15.6 µM, 1630 µM and above 40 µM, respectively.

`Cc1nc(Cl)cnc1C(=O)Nc1ccc(F)c([C@@]2(C(F)F)N=C(N)O[C@@H]3C[C@@H]32)c1` (stereo in doubt) [Example 53, N-(3-((1R,5S,6R)-3-amino-5-(difluoromethyl)-2-oxa-4-azabicyclo[4.1.0]hept-3-en-5-yl)-4-fluorophenyl)-5-chloro-3-methylpyrazine-2-carboxamide]: the IC50 in assay [1] was 2.38 µM; in assay [2], 577 µM; in assay [3] it was 0.0616 µM.

As to `Cc1ncc(Cl)nc1C(=O)Nc1ccc(F)c([C@@]2(C(F)F)N=C(N)O[C@@H]3C[C@@H]32)c1` (stereo in doubt) [Example 54, N-(3-((1R,5S,6R)-3-amino-5-(difluoromethyl)-2-oxa-4-azabicyclo[4.1.0]hept-3-en-5-yl)-4-fluorophenyl)-6-chloro-3-methylpyrazine-2-carboxamide], the IC50 in assay [1] was determined as 2.24 µM; in assay [2] it was 460 µM; in assay [3], 2.51 µM.

Take `NC1=N[C@](CF)(c2nc(NC(=O)c3ccc(Cl)cn3)ccc2F)[C@H]2C[C@H]2O1` (stereo in doubt) [Example 105, N-(6-((1R,5S,6R)-3-amino-5-(fluoromethyl)-2-oxa-4-azabicyclo[4.1.0]hept-3-en-5-yl)-5-fluoropyridin-2-yl)-5-chloropicolinamide]: the IC50 was 2.1 µM in assay [1], 1620 µM in assay [2] and 39.3 µM in assay [3].

With `NC1=N[C@@](CF)(c2nc(NC(=O)c3ccc(Cl)cn3)ccc2F)[C@@H]2C[C@@H]2O1` (stereo in doubt) [Example 106, N-(6-((1S,5R,6S)-3-amino-5-(fluoromethyl)-2-oxa-4-azabicyclo[4.1.0]hept-3-en-5-yl)-5-fluoropyridin-2-yl)-5-chloropicolinamide], the IC50 in assay [1] is 0.0456 µM; in assay [2], 216 µM; in assay [3] it was 0.252 µM.

Take `NC1=N[C@@](c2cc(NC(=O)c3nn(C(F)F)cc3Cl)cc(F)c2F)(C(F)F)[C@H]2C[C@H]2O1` (stereo in doubt) [Example 110, N-(3-((1R,5S,6R)-3-amino-5-(difluoromethyl)-2-oxa-4-azabicyclo[4.1.0]hept-3-en-5-yl)-4,5-difluorophenyl)-4-chloro-1-(difluoromethyl)-1H-pyrazole-3-carboxamide]: the figures for the IC50 in assay [1], in assay [2] and in assay [3] were above 17.4 µM, 1480 µM and 26.2 µM, respectively.

Regarding `NC1=NC(c2cc(NCc3nn(C(F)F)cc3Cl)ccc2F)(C(F)F)[C@H]2C[C@H]2O1` (stereo in doubt) [Example 374, (1R,5R,6R)-5-(5-(((4-chloro-1-(difluoromethyl)-1H-pyrazol-3-yl)methyl)amino)-2-fluorophenyl)-5-(difluoromethyl)-2-oxa-4-azabicyclo[4.1.0]hept-3-en-3-amine], the IC50 in assay [1] came to 0.0779 µM; in assay [2] it was 116 µM; in assay [3], 0.0954 µM.

Take `COc1cc(Cl)cnc1C(=O)Nc1ccc(F)c([C@@]2(C(F)F)N=C(N)O[C@@H]3C[C@@H]32)c1` [Example 28, N-(3-((1R,5S,6R)-3-amino-5-(difluoromethyl)-2-oxa-4-azabicyclo[4.1.0]hept-3-en-5-yl)-4-fluorophenyl)-5-chloro-3-methoxypicolinamide]: the IC50 was 0.0765 µM in assay [1], 908 µM in assay [2] and 0.118 µM in assay [3].

Regarding `NC1=N[C@@](CF)(c2cc(NC(=O)c3ccc(Cl)cn3)cc(F)c2F)[C@@H]2C[C@@H]2O1` [Example 32, N-(3-((1 S,5R,6S)-3-amino-5-(fluoromethyl)-2-oxa-4-azabicyclo[4.1.0]hept-3-en-5-yl)-4,5-difluorophenyl)-5-chloropicolinamide], the values for the IC50 in assay [1], in assay [2] and in assay [3] were 0.232 µM, 1020 µM and 1.22 µM, respectively.

As to `C#CCOc1cnc(C(=O)Nc2cc(F)c(F)c([C@@]3(CF)N=C(N)O[C@@H]4C[C@@H]43)c2)cn1` [Example 33, N-(3-((1R,5S,6R)-3-amino-5-(fluoromethyl)-2-oxa-4-azabicyclo[4.1.0]hept-3-en-5-yl)-4,5-difluorophenyl)-5-(prop-2-yn-1-yloxy)pyrazine-2-carboxamide], the IC50 worked out at 0.0014 µM in assay [1], 116 µM in assay [2] and 0.0054 µM in assay [3].

For the molecule `CC#CCOc1cnc(C(=O)Nc2cc(F)c(F)c([C@@]3(CF)N=C(N)O[C@@H]4C[C@@H]43)c2)cn1` [Example 35, N-(3-((1R,5S,6R)-3-amino-5-(fluoromethyl)-2-oxa-4-azabicyclo[4.1.0]hept-3-en-5-yl)-4,5-difluorophenyl)-5-(but-2-yn-1-yloxy)pyrazine-2-carboxamide], the IC50 amounted to 0.0006 µM in assay [1], 256 µM in assay [2] and 0.0016 µM in assay [3].

With `NC1=N[C@](CF)(c2cc(NC(=O)c3ccc(Br)cn3)cc(F)c2F)[C@H]2C[C@H]2O1` [Example 39, N-(3-((1R,5S,6R)-3-amino-5-(fluoromethyl)-2-oxa-4-azabicyclo[4.1.0]hept-3-en-5-yl)-4,5-difluorophenyl)-5-bromopicolinamide], the IC50 in assay [1] is 0.0179 µM; in assay [2], 109 µM; in assay [3], 0.0469 µM.
